Experimental findings from the supplement of paper PMC11061612 are described below.

Assay [1] concerns LNCaP-Clone-FGC (Prostate Carcinoma). Description: Bliss excess, mean over the matrix (fraction); higher = more synergy. An outline of the steps:
(§1)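 Bliss excess equals the observed combination effect minus the expected value EA + EB − EA·EB, where EA and EB are the effects of each agent alone. Combination Emax is the second-highest inhibition within the matrix. Inhibition was scaled from CellTiter-Glo 2.0 luminescence, with 0 set by vehicle wells and 1 by blank wells, after 72 hours of two-drug dosing of cells plated in 1536-well plates.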

The test system of assay [2] is SK-ES-1 (Ewing's Sarcoma). Described as above. An outline of the steps:
as §1

The next assay concerns ES4 (Ewing's Sarcoma). Described as above. The gist of the method:
as §1

In the next assay the test system is AGS (Gastric Carcinoma). The assay is described as above. The gist of the method:
as §1

Assay [3] deals with Calu-3 (Lung Adenocarcinoma). The assay is described as above. An outline of the steps: as §1
In assay [4] the test system is B-CPAP (Thyroid Gland Carcinoma). The assay is described as above. An outline of the steps:
as §1

In assay [5] the test system is ME-1 (Acute Myeloid Leukemia). Described as above. The gist of the method: as §1
Assay [6] concerns NCI-H2085 (Non-Small Cell Lung Carcinoma). Described as above. The gist of the method:
as §1

Assay [7] deals with DoTc2-4510 (Cervical Carcinoma). The assay is described as above. An outline of the steps:
as §1

Assay [8] deals with CAL-148 (Breast Carcinoma). The description is as above. An outline of the steps:
as §1

The test system of assay [9] is HT-1376 (Bladder Carcinoma). The description is as above. The gist of the method: as §1
The test system of assay [10] is LU-135 (Small Cell Lung Carcinoma). The assay is described as above. An outline of the steps:
as §1

In assay [11] the test system is KURAMOCHI (Ovarian Carcinoma). The assay is described as above. The gist of the method: as §1
Assay [12] has as its system HCC1806 (Breast Carcinoma). The assay is described as above. An outline of the steps: as §1
In assay [13] the test system is Hs-578-T (Breast Carcinoma). The assay is described as follows: combination Emax (second highest fraction inhibited in the dose matrix, 72 h); higher = more inhibition; extreme values may be limits of the assay. The gist of the method:
as §1

The subject of assay [14] is TE-15 (Esophageal Squamous Cell Carcinoma). The assay is described as above. The gist of the method:
as §1

Assay [15] relates to EC-GI-10 (Esophageal Squamous Cell Carcinoma). The assay is described as above. An outline of the steps:
as §1

Assay [16] deals with KP-1N (Pancreatic Carcinoma). The description is as above. The gist of the method: as §1
The subject of a further assay is 42-MG-BA (Glioblastoma). The description is as above. An outline of the steps:
as §1

In another assay the test system is T98G (Glioblastoma). The assay is described as above. The gist of the method:
as §1

As for `Cc1c2c(nn1C)CSCc1cc(n(C)n1)CSc1cc(c3ccccc3c1)OCCCc1c(C(=O)O)n(C)c3c-2c(Cl)ccc13` [AZD5991] + C[C@@H](Nc1cc(F)cc(F)c1)c1cc(C(=O)N(C)C)cc2c(=O)cc(N3CCOCC3)oc12 [AZD8186] (first compound max 1 µM, 7x7, partner max 3 µM), the Bliss excess was -0.0234 in assay [1]; 0.023 in assay [2]; -0.0286 in the assay with ES4 (Ewing's Sarcoma); 0.0073 with AGS (Gastric Carcinoma); 0.0441 in assay [3]; -0.0409 in assay [4]. Besides, the Bliss excess was -0.037 in [5]; -0.043 in [6]; 0.0486 in assay [7]; -0.0338 in assay [8]; -0.0304 in assay [9]; 0.0307 in [10]. The Bliss excess worked out at 0.039 in assay [11] and 0.0026 in assay [12]. For the same compound, the “combination Emax” value in assay [13] turned out to be 0.738; in [14] it was 0.223; in assay [15], 0.559; in assay [16] it was 0.274; with 42-MG-BA (Glioblastoma) it was 0.963; with T98G (Glioblastoma), 0.501.
Turning to `Cc1c2c(nn1C)CSCc1cc(n(C)n1)CSc1cc(c3ccccc3c1)OCCCc1c(C(=O)O)n(C)c3c-2c(Cl)ccc13` [AZD5991] + C[C@@H]1COCCN1C2=NC(=NC(=C2)C3(CC3)[S@](=N)(=O)C)C4=C5C=CNC5=NC=C4 [AZD6738] (first compound max 1 µM, 7x7, partner max 10 µM), the Bliss excess in assay [1] is 0.0123; in assay [2], 0.017; in the assay on ES4 (Ewing's Sarcoma), -0.0118; with AGS (Gastric Carcinoma), 0.0629; in [3], 0.0119; in assay [4], 0.0032. Moreover, the Bliss excess in assay [5] was 0.0454; in [6] it was 0.0312; in assay [7], -0.0327; in [8] it was 0.0584; in assay [9] it was 0.0144; in [10], 0.0274. In addition, the Bliss excess in [11] worked out at 0.0587; in [12], 0.0218. Further, the “combination Emax” value amounted to 0.891 in [13]; 0.736 in assay [14]; 0.819 in assay [15]; 0.279 in assay [16]; 1 in the assay on 42-MG-BA (Glioblastoma); 0.875 in the assay with T98G (Glioblastoma).
Consider `NC1(C(=O)N[C@@H](CCO)c2ccc(Cl)cc2)CCN(c2ncnc3[nH]ccc23)CC1` [Capivasertib] + CC(C)n1c(=O)n(C)c2cnc3cc(F)c(-c4ccc(OCCCN5CCCCC5)nc4)cc3c21 [AZD1390] (first compound max 10 µM, 7x7, partner max 0.3 µM), for which the Bliss excess in [1] is -0.0681; in assay [2], 0.0079; in the assay with ES4 (Ewing's Sarcoma), -0.0585; in the assay on AGS (Gastric Carcinoma), -0.108; in assay [3], -0.0016; in assay [4], -0.0897. The Bliss excess is -0.0319 in assay [5]; -0.0564 in assay [6]; -0.0976 in assay [7]; -0.0509 in assay [8]; -0.0399 in assay [9]; -0.0242 in assay [10]. Besides, the Bliss excess in assay [11] is -0.0085; in assay [12], -0.0732. Further, the “combination Emax” value in assay [13] worked out at 0.682; in assay [14] it was 0.387; in assay [15], 0.574; in [16] it was 0.254; in the assay with 42-MG-BA (Glioblastoma), 0.686; in the assay with T98G (Glioblastoma), 0.449.
`CCN(CCO)CCCOc1ccc2c(Nc3cc(CC(=O)Nc4cccc(F)c4)[nH]n3)ncnc2c1` [AZD2811] + C[C@@H]1COCCN1C2=NC(=NC(=C2)C3(CC3)[S@](=N)(=O)C)C4=C5C=CNC5=NC=C4 [AZD6738] (first compound max 1 µM, 7x7, partner max 10 µM): the Bliss excess in [1] is -0.0447; in [2] it was 0.0382; with ES4 (Ewing's Sarcoma), -0.0042; in the assay with AGS (Gastric Carcinoma), -0.0191; in assay [3] it was -0.0169; in [4], -0.0276. In addition, the Bliss excess was -0.0813 in assay [5]; -0.0913 in assay [6]; -0.0481 in assay [7]; -0.0252 in [8]; -0.0566 in assay [9]; -0.0552 in [10]. The Bliss excess in [11] was -0.0649; in assay [12], -0.014. Further, the “combination Emax” value in assay [13] stood at 0.839; in [14], 0.731; in [15], 0.824; in [16] it was 0.199; with 42-MG-BA (Glioblastoma), 0.568; with T98G (Glioblastoma) it was 0.799.
Take `COc1cccc(OCCCN)c1-c1cc(Nc2cnc(C#N)cn2)n[nH]1` [Prexasertib] + O=C(c1cc(Cc2n[nH]c(=O)c3ccccc23)ccc1F)N1CCN(C(=O)C2CC2)CC1 [Olaparib] (first compound max 1 µM, 7x7, partner max 10 µM): the Bliss excess in assay [1] is -0.049; in assay [2], 0.0008; with ES4 (Ewing's Sarcoma), -0.0699; in the assay with AGS (Gastric Carcinoma) it was 0.0033; in assay [3] it was -0.0558; in assay [4] it was -0.007. The Bliss excess in [5] was -0.0619; in assay [6], -0.208; in assay [7], -0.0041; in [8], -0.0507; in [9], -0.0976; in assay [10] it was -0.0079. Also, the Bliss excess was -0.0891 in assay [11] and -0.0284 in assay [12]. Besides, the “combination Emax” value in [13] came to 0.925; in assay [14], 0.842; in assay [15], 0.78; in [16], 0.332; with 42-MG-BA (Glioblastoma), 0.908; in the assay on T98G (Glioblastoma) it was 0.757.
On to `COc1nnc2ccc(N3CCC(c4ccc(OCCN5CCN(C)C(=O)[C@H]5C)cc4)CC3)nn12` [AZD5153] + CC1(C)CCC(CN2CCN(c3ccc(C(=O)NS(=O)(=O)c4ccc(NCC5CCOCC5)c([N+](=O)[O-])c4)c(Oc4cnc5[nH]ccc5c4)c3)CC2)=C(c2ccc(Cl)cc2)C1 [Venetoclax] (first compound max 1 µM, 7x7, partner max 1 µM), for which the Bliss excess is -0.0468 in [1]; -0.0092 in assay [2]; -0.111 in the assay with ES4 (Ewing's Sarcoma); -0.0619 in the assay with AGS (Gastric Carcinoma); -0.0258 in assay [3]; -0.0858 in [4]. Also, the Bliss excess in [5] was 0.0529; in assay [6], -0.0655; in [7], -0.0405; in assay [8], -0.0682; in assay [9] it was -0.0305; in [10] it was -0.001. Also, the values for the Bliss excess in assay [11] and in [12] were -0.0471 and -0.0513, respectively. Besides, the “combination Emax” value in assay [13] was 0.761; in assay [14], 0.503; in assay [15], 0.251; in assay [16] it was 0.481; in the assay with 42-MG-BA (Glioblastoma), 0.56; in the assay with T98G (Glioblastoma), 0.491.
